Test results published in paper PMC3889466 (Journal of medicinal chemistry, 2013).
Like-named read-outs stand apart in the source and are kept apart here.

Legend:
[1] = tested on: MDCK cells
[2] = tested on: Influenza A/H1N1 (A/PR/8/34); format: cell-based, influenza A virus
[3] = tested on: A/HK/7/87; experiment: microbe, parasite or virus in culture; format: cell-based, influenza A virus; settings: for EC90: Influenza A virus, MDCK, 24 h, read-out: Activity against A/HK/7/87 EC90
[4] = tested on: MDCK cells; remark: listed apart in the source
[5] = target: A/M2 wt (Influenza A virus, UniProt P0DOF5); settings: cited from earlier work
Sequence of A/M2 wt (P0DOF5 whole entry): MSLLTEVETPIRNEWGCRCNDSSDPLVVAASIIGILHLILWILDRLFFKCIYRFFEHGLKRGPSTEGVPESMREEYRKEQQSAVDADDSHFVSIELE

[6] = read-out: Antiviral EC50 Influenza A/H1N1 CPE
[7] = read-out: Antiviral EC50 Influenza A/H1N1 MTS
[8] = MDCK, minimal alterations in cell morphology after 72 hr
[9] = minimal alterations in cell morphology after 24 hr incubation

SMILES	Cytotoxicity at 72 hr MCC (minimum cytotoxic concentration) ([1]; dog) [µM]	EC50 [2, 6] [µM]	EC50 [2, 7] [µM]	Activity against A/HK/7/87 EC99 [3] [µM]	also measured
CN1CC23CC4CC2(CC4C3)C1.Cl [Compound 15b, 3-Methyl-3-azatetracyclo[5.2.1.1^5,8.0^1,5]undecane hydrochloride]	≥100	> 100	> 100	–	–
C1NCC23CC4CC12CC4C3.Cl [Compound 14b, 3-azatetracyclo[5.2.1.1^5,8.0^1,5]undecane hydrochloride]	100	> 100	> 100	–	–
CC12CC34CN(C(=N)N)CC3(C1)CC2(C)C4.Cl [Compound 16a, 3-Amidino-7,8-dimethyl-3-azatetracyclo[5.2.1.1^5,8.0^1,5]undecane hydrochloride]	4	> 100	> 100	0.79	EC90 [3]: < 1 µM; Cytotoxicity at 24 hr MCC ([4]; dog): >50 µM
CN1CC23CC4(C)CC2(C1)CC4(C)C3.Cl [Compound 15a, 3,7,8-Trimethyl-3-azatetracyclo[5.2.1.1^5,8.0^1,5]undecane hydrochloride]	≥20	> 100	> 100	–	–
NC12CC3CC(CC(C3)C1)C2 [Amantadine, amantadine, reference compound]	–	–	–	–	Activity against A/HK/7/87 EC99 ([3]; listed as Amt): ~ 1 μM
C1C2C1C1C3C4C5C6CC6C4C14CNCC54C23 (centres unmarked) [Compound 11]	–	–	–	–	Activity against the wt A/M2 channel (in words) [5]: promising activity
C1=CC2C3C4C5C=CC4C24CNCC54C13 [Compound 10]	–	–	–	–	Activity against the wt A/M2 channel (in words) [5]: promising activity
NCC12C3CCC4C3C3C(CCC31)C42 [Compound 9]	–	–	–	–	Activity against the wt A/M2 channel (in words) [5]: did not inhibit
Cl.N=C(N)N1CC23CC45CCCCC4(C2)CC3(C1)C5 [Compound 16d, 12-Amidino-12-azapentacyclo[6.5.1.1^3,10.0^1,10.0^3,8]pentadecane hydrochloride]	4.0	> 100	> 100	>2	EC90 [3]: < 1 µM; Cytotoxicity at 24 hr MCC ([4]; dog): ≥10 µM
CC(N)C12CC3CC(CC(C3)C1)C2 (centres unmarked) [Rimantadine, rimantadine, reference compound]	–	–	–	>4	Cytotoxicity at 72 hr MCC (minimum cytotoxic concentration) [1, 8]: 500 µM; Cytotoxicity at 24 hr MCC [4, 9]: ≥500 µM
CC12CC34CNCC3(C1)CC2(C)C4.Cl [Compound 14a, 7,8-Dimethyl-3-azatetracyclo[5.2.1.1^5,8.0^1,5]undecane hydrochloride]	100	> 100	> 100	–	–
C1CCC23CC45CNCC4(CC2(C1)C5)C3.O=C(O)C(O)C(O)C(=O)O [Compound 14d, 12-Azapentacyclo[6.5.1.1^3,10.0^1,10.0^3,8]pentadecane (2R,3R)-tartrate]	–	> 100	> 100	>10	EC90 [3]: < 1 µM; Cytotoxicity at 72 hr MCC (minimum cytotoxic concentration) [1, 8]: 4.0 µM; Cytotoxicity at 24 hr MCC [4, 9]: >50 µM
NC(=O)c1ncn([C@@H]2O[C@H](CO)[C@@H](O)[C@H]2O)n1 [Ribavirin, reference compound]	–	–	–	11	Cytotoxicity at 24 hr MCC ([4]; dog): >100 µM
NC12C3CCC4C3C3C(CCC31)C42 [Compound 8]	–	–	–	–	Activity against the wt A/M2 channel (in words) [5]: did not inhibit
Cl.N=C(N)N1CC23CC4CC2(CC4C3)C1 [Compound 16b, 3-Amidino-3-azatetracyclo[5.2.1.1^5,8.0^1,5]undecane hydrochloride]	–	> 50	> 50	≥38	Cytotoxicity at 24 hr MCC ([4]; dog): >50 µM
